Results: patent publication US7323541B2, “Polypeptide DNA thereof and use of the same” (Takeda Pharmaceutical Company Limited, priority 2001, dated 2008)
Where a chain is given by its changes, count along the chain named. Where no end group is shown, it is not given here.

Columns and labels:
[1] = target: T1, TGR23-1 expressing CHO cells (Homo sapiens, UniProt Q6W5P4); assay: Enhancing activity of intracellular cAMP production; assay type: cell-based
T1 construct: the clones having the cDNA of TGR23-1, which is contained in pTB2173, were selected; expressed in transfected cells; host or cells: hamster CHO/dhfr- cells, vector pAKKO-111H (pAKKO-TGR23-1), clones No. 49 and No. 52
T1 sequence (Q6W5P4 1-371): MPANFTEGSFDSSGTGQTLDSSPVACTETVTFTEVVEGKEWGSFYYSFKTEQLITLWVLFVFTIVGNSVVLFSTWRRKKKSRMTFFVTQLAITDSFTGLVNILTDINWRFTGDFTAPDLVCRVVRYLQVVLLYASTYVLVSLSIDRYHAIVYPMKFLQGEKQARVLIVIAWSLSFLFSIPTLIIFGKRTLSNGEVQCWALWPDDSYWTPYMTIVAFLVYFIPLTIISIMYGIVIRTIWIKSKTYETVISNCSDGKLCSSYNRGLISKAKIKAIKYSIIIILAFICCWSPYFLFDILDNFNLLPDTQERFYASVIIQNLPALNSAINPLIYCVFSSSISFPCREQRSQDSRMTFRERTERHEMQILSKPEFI
Protocol: The CHO/TGR23-2 cells prepared in Example 1 and selected in Example 2 were plated on 24-well plate at 7×10^4 cells/well and cultured for 48 hours. The cells were washed with αMEM medium (pH7.5) containing 0.2 mM 3-isobutyl-methylxanthine, 0.05% BSA and 20 mM HEPES (hereafter, αMEM medium (pH7.5) containing 0.2 mM 3-isobutyl-methylxanthine, 0.05% BSA and 20 mM HEPES may be referred to as a reaction buffer). Subsequently, 0.5 ml of the reaction buffer was added, and the solution was incubated for 30 minutes in the incubator. The reaction buffer was removed and 0.25 ml of the reaction buffer was freshly added to the cells. Then, the cells were admixed with a sample and 0.25 ml of the reaction buffer containing 2 μM forskoline, and incubated at 37° C. for 30 minutes. Intracellular cAMP was extracted by removing the reaction solution and adding 0.5 ml of the solution for cell lysis attached with cAMP EIA Kit (Applied Biosystems). The cAMP level in the extract was quantified with the same kit. Based on this measured value, a calculation was made using the following formula, and the enhancing/inhibiting activity for cAMP production was represented by % of control. The activity of the sample-adding group was calculated using a control value configured in each plate. % of control=(X−C)/(T−C)×100
X: The cAMP level in the sample-adding group
T: The means of the cAMP level in 3 wells of positive control (no sample, with stimulus of forskoline)
C: The means of the cAMP level in 3 wells of negative control (no sample, without stimulus of forskoline)
Human TGR23-2 ligand (1-20) prepared by the method described in Example 17 was administered to TGR23-1 expressing CHO cells and TGR23-2 expressing CHO cells at a variety of concentrations according to the method described in Example 3, and the enhancing activity of intracellular cAMP production was determined. […]

[2] = target: T2, human TGR23-1D expressing CHO cells (Homo sapiens, UniProt Q6W5P4, Q344R); assay: Intracellular Ca ion concentration increasing activity using FLIPR; assay type: cell-based
T2 construct: expressed in transfected cells; host or cells: CHO dhfr- cells, pAKKO-TGR23-1D, clone No. 12
T2 sequence (Q6W5P4 1-371 Q344R): T1 sequence (Q6W5P4 1-371) with Q344R
Protocol: An enhancing activity of intracellular Ca^2+ release was assayed using FLIPR (Molecular Devices, Inc.). The CHO/TGR23-2 cells prepared in Example 1 and selected in Example 2 were plated on 96-well plate at 3×10^4 cells/well and cultured for 24 hours. A loading buffer was prepared by adding 1 vial of Fluo 3-AM to 10 ml of Hanks' solution (pH7.4) containing 2.5 mM Probenecid and 20 mM HEPES (hereafter, Hanks' solution (pH7.4) containing 2.5 mM Probenecid and 20 mM HEPES may be referred to as a washing buffer). The culture medium was discarded from the culture plate and 100 μl/well of the loading buffer were added to the cells. Then, the cells were incubated for 60 minutes in the incubator. After the loading buffer was removed from the culture plate and the cells were washed with the washing buffer, the plate was put in place of FLIPR. A sample was prepared by adding a sample buffer, which 2 mg/ml BSA and 1 mg/ml CHAPS were added to the washing buffer, to lyophilized product, stirring and treating by ultrasonication for 30 minutes, and transferred to 96-well sample plate. This sample plate was also put in place for assay. The enhancing activity of intracellular Ca^2+ release was measured as an increase of fluorescent intensity, which is raised by addition of the sample.
The human TGR23-2 ligand (1-20) having various concentrations was administered in accordance with the method described in Example 5, to the CHO cells, in which human TGR23-1A, human TGR23-1B, human TGR23-1C and human TGR23-1D are expressed. Subsequently, the intracellular Ca ion concentration increasing activity was measured using FLIPR.

Q: With “SFRNGVGSGVKKTSFRRA [rat TGR23-2 ligand (1-18), Ser-Phe-Arg-Asn-Gly-Val-Gly-Ser-Gly-Val-Lys-Lys-Thr-Ser-Phe-Arg-Arg-Ala]” as the sequence, how does the “enhancing activity of intracellular cAMP production” value ([1]; no forskolin) read?
A: enhance the intracellular cAMP production

Q: What does the source list for “SFRNGVGTGMKKTSFQRAKS [human TGR23-2 ligand (1-20)]”?
A: intracellular Ca ion concentration increasing activity [2]: the intracellular Ca ion level increased depending on the concentration of this ligand; enhancing activity of intracellular cAMP production ([1]; no forskolin): enhance the intracellular cAMP production; enhancing activity of intracellular cAMP production ([1]; with forskolin): clearly enhances cAMP production
